Test results reported in US9822127B2, “GAK modulators as antivirals” (Katholieke Universiteit Leuven, priority 2014, dated 2017).

Molecular target: T1, GAK (Homo sapiens, UniProt O14976)
T1 construct: made in house; host or cells: T7 phage grown in E. coli host derived from BL21
T1 sequence (O14976 1-1311): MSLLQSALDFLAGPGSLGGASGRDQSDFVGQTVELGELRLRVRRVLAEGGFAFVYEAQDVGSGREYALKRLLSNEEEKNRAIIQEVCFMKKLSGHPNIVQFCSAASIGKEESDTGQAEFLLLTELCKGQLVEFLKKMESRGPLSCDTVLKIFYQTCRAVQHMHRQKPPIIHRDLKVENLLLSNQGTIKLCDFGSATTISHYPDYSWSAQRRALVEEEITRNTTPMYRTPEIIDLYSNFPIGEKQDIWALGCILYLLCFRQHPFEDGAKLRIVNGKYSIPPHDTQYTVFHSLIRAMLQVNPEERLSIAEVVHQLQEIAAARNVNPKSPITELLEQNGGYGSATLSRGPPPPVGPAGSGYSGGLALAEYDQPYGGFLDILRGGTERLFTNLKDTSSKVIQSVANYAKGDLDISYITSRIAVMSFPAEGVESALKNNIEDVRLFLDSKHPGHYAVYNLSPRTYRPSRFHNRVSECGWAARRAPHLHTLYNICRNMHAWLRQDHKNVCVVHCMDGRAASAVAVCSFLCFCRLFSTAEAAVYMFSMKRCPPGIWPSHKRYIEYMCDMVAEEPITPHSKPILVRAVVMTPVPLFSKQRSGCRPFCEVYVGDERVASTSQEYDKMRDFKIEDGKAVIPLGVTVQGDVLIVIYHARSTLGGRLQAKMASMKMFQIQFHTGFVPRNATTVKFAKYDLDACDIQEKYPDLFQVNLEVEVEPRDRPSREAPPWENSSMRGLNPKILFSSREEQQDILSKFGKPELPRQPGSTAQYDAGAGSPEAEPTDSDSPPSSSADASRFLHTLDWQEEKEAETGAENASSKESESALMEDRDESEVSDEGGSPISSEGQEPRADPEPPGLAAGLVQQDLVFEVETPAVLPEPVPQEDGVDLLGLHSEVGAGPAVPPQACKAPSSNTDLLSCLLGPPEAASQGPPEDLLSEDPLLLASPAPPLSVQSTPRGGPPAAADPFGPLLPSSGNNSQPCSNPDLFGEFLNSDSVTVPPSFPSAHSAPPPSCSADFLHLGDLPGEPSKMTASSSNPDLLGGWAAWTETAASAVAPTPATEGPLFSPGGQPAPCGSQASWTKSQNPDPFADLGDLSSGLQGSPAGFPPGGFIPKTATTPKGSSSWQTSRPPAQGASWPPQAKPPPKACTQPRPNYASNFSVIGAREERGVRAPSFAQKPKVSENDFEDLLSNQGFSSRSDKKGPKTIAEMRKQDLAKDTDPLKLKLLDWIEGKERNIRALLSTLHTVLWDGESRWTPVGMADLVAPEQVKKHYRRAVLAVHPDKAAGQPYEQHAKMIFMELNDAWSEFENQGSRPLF
Test: GAK binding assay (T7 phage kinase competition binding)
Conditions: for % Ctrl: 10 µM; for remaining binding at 10 µM: read-out: % Ctrl

[1] = single concentration of 10 μM, lower numbers indicate stronger hits

## COc1snc2cc(Br)cnc12 [Example 14, 3-methoxy-6-bromo-isothiazolo[4,3-b]pyridine]
[1]
  % Ctrl: 87%

## COc1ccc(OC)c(-c2cnc3c(N4CCOCC4)snc3c2)c1 [Example 44, 4-(6-(2,5-Dimethoxyphenyl)isothiazolo[4,3-b]pyridin-3-yl)morpholine]
[1]
  remaining binding at 10 µM: 0.7%

## CN1CCN(c2snc3cc(-c4ccccc4)cnc23)CC1 [Example 38]
[1]
  remaining binding at 10 µM: 76%

## Nc1snc2cc(-c3cccnc3)cnc12 [Example 5, 3-amino-6-(3-pyridyl)-isothiazolo[4,3-b]pyridine]
[1]
  remaining binding at 10 µM: 80%

## COc1snc2cc(-c3cccnc3)cnc12 [Example 35]
  % Ctrl: 93%

## COc1snc2cc(-c3ccc(F)cc3)cnc12 [Example 34, 3-methoxy-6-(4-fluoro-phenyl)-isothiazolo[4,3-b]pyridine]
[1]
  remaining binding at 10 µM: 37%

## c1cc2c(cc1-c1cnc3c(N4CCOCC4)snc3c1)OCO2 [Example 51, 4-(6-(Benzo[d][1,3]dioxol-5-yl)isothiazolo[4,3-b]pyridin-3-yl)morpholine]
[1]
  remaining binding at 10 µM: 51%

## OCCNc1snc2cc(-c3ccsc3)cnc12 [Example 30, 3-ethanolamino-6-(3-thienyl)-isothiazolo[4,3-b]pyridine]
  Kd: 300 nM
[1]
  remaining binding at 10 µM: 0.3%

## OCCNc1snc2cc(-c3ccc(F)cc3)cnc12 [Example 32, 3-ethanolamino-6-(3-(4-fluorophenyl))-isothiazolo[4,3-b]pyridine]
[1]
  remaining binding at 10 µM: 2.2%

## CN1CCN(c2snc3cc(-c4cccnc4)cnc23)CC1 [Example 39, 3-(N-Me-piperazinyl)-6-(3-pyridyl)-isothiazolo[4,3-b]pyridine]
[1]
  remaining binding at 10 µM: 88%

## 6-bromo-6-ethanolamino-isothiazolo[4,3-b]pyridine [Example 12]
  % Ctrl: 62%

## OCCNc1snc2cc(-c3ccccc3)cnc12 [Example 31, 3-ethanolamino-6-phenyl-isothiazolo[4,3-b]pyridine]
[1]
  remaining binding at 10 µM: 18%

## COc1snc2cc(-c3ccsc3)cnc12 [Example 37]
  % Ctrl: 22%

## c1cc(-c2cnc3c(N4CCOCC4)snc3c2)cs1 [Example 27]
[1]
  remaining binding at 10 µM: 0.1%

## COc1ccc(-c2cnc3c(N4CCOCC4)snc3c2)c(OC)c1 [Example 45, 4-(6-(2,4-Dimethoxyphenyl)isothiazolo[4,3-b]pyridin-3-yl)morpholine]
[1]
  remaining binding at 10 µM: 6.3%

## COc1ccc(-c2cnc3c(N4CCSCC4)snc3c2)cc1OC [Example 58, 6-(3,4-dimethoxyphenyl)-3-thiomorpholinoisothiazolo[4,3-b]pyridine]
  Kd: 230 nM
[1]
  remaining binding at 10 µM: 0.8%

## COc1ccc(-c2cnc3c(OC)snc3c2)cc1OC [Example 36]
  % Ctrl: 19%

## Nc1snc2cc(-c3ccccc3)cnc12 [Example 4, 3-amino-6-phenyl-isothiazolo[4,3-b]-pyridine]
[1]
  remaining binding at 10 µM: 68%

## COc1ccc(-c2cnc3c(N4CCCC4)snc3c2)cc1OC [Example 73, 6-(3,4-dimethoxyphenyl)-3-(pyrrolidin-1-yl)isothiazolo[4,3-b]pyridine]
  Kd: 100 nM
[1]
  remaining binding at 10 µM: 0%

## Nc1snc2cc(-c3ccc(F)cc3)cnc12 [Example 7, 3-amino-6-(4-fluorophenyl)-isothiazolo[4,3-b]pyridine]
[1]
  remaining binding at 10 µM: 55%

## Fc1ccc(-c2cnc3c(N4CCOCC4)snc3c2)cc1 [Example 24]
[1]
  remaining binding at 10 µM: 11%

## OCCNc1snc2cc(-c3cccnc3)cnc12 [Example 28]
[1]
  remaining binding at 10 µM: 45%

## COc1ccc(-c2cnc3c(N4CCOCC4)snc3c2)cc1OC [Example 26]
[1]
  remaining binding at 10 µM: 0%

## CN1CCN(c2snc3cc(-c4ccsc4)cnc23)CC1 [Example 41, 3-(N-Me-piperazinyl)-6-(3-thienyl)-isothiazolo[4,3-b]pyridine]
[1]
  remaining binding at 10 µM: 7.4%

## Nc1snc2cc(-c3ccsc3)cnc12 [Example 8, 3-amino-6-(3-thienyl)-isothiazolo[4,3-b]pyridine]
[1]
  remaining binding at 10 µM: 61%
